Compound	melting point [°C]
CCOCc1nc2c(N)nc3cc(-c4cccnc4)ccc3c2n1CCCCS(=O)(=O)NC [Example 369, Methyl 4-[4-amino-2-ethoxymethyl-7-(pyridin-3-yl)-1H-imidazo[4,5-c]quinolin-1-yl]butane-1-sulfonamide]	216 to 218
CCOCc1nc2c(N)nc3cc(-c4cccnc4)ccc3c2n1CCCCCS(=O)(=O)N(C)C [Example 370, Dimethyl 5-[4-amino-2-ethoxymethyl-7-(pyridin-3-yl)-1H-imidazo[4,5-c]quinolin-1-yl]pentane-1-sulfonamide]	159 to 160
CCOCc1nc2c(N)nc3cc(-c4cccnc4)ccc3c2n1CCCCCS(=O)(=O)NC [Example 371, Methyl 5-[4-amino-2-ethoxymethyl-7-(pyridin-3-yl)-1H-imidazo[4,5-c]quinolin-1-yl]pentane-1-sulfonamide]	191 to 192
CCCC(=O)NCCCCn1c(COCC)nc2c(N)nc3cc(-c4cccnc4)ccc3c21 [Example 372, N-{4-[4-Amino-2-ethoxymethyl-7-(pyridin-3-yl)-1H-imidazo[4,5-c]quinolin-1-yl]butyl}butyramide]	150 to 152
CCOCc1nc2c(N)nc3cc(-c4cccnc4)ccc3c2n1CCCCNC(=O)C(C)C [Example 373, N-{4-[4-Amino-2-ethoxymethyl-7-(pyridin-3-yl)-1H-imidazo[4,5-c]quinolin-1-yl]butyl}-2-methylpropanamide]	200 to 202
CCCS(=O)(=O)NCCCCn1c(COCC)nc2c(N)nc3cc(-c4cccnc4)ccc3c21 [Example 376, N-{4-[4-Amino-2-ethoxymethyl-7-(pyridin-3-yl)-1H-imidazo[4,5-c]quinolin-1-yl]butyl}propane-1-sulfonamide]	178 to 180
CCOCc1nc2c(N)nc3cc(-c4cccnc4)ccc3c2n1CCCCNC(=O)NC1CCCC1 [Example 377, N-{4-[4-Amino-2-ethoxymethyl-7-(pyridin-3-yl)-1H-imidazo[4,5-c]quinolin-1-yl]butyl}-N′-cyclopentylurea]	190 to 192
CCCNC(=O)NCCCCn1c(COCC)nc2c(N)nc3cc(-c4cccnc4)ccc3c21 [Example 378, N-{4-[4-Amino-2-ethoxymethyl-7-(pyridin-3-yl)-1H-imidazo[4,5-c]quinolin-1-yl]butyl}-N′-propylurea]	191 to 193
CCOCc1nc2c(N)nc3cc(-c4cccnc4)ccc3c2n1CCCCNC(=O)NC(C)C [Example 379, N-{4-[4-Amino-2-ethoxymethyl-7-(pyridin-3-yl)-1H-imidazo[4,5-c]quinolin-1-yl]butyl}-N′-(1-methylethyl)urea]	192 to 194
CCOCc1nc2c(N)nc3cc(-c4cccnc4)ccc3c2n1CCNC(=O)C(C)C [Example 386, N-{2-[4-Amino-2-ethoxymethyl-7-(pyridin-3-yl)-1H-imidazo[4,5-c]quinolin-1-yl]ethyl}-2-methylpropanamide]	213 to 215
CCOCc1nc2c(N)nc3cc(-c4cccnc4)ccc3c2n1CCNS(C)(=O)=O [Example 387, N-{2-[4-Amino-2-ethoxymethyl-7-(pyridin-3-yl)-1H-imidazo[4,5-c]quinolin-1-yl]ethyl}methanesulfonamide]	233 to 235
CCOCc1nc2c(N)nc3cc(-c4cccnc4)ccc3c2n1CCNC(=O)NC(C)C [Example 388, N-{2-[4-Amino-2-ethoxymethyl-7-(pyridin-3-yl)-1H-imidazo[4,5-c]quinolin-1-yl]ethyl}-N′-(1-methylethyl)urea]	194 to 196
CCOCc1nc2c(N)nc3cc(-c4cccnc4)ccc3c2n1CCN1CCCS1(=O)=O [Example 389, 1-[2-(1,1-Dioxo-1-isothiazolidin-2-yl)ethyl]-2-ethoxymethyl-7-(pyridin-3-yl)-1H-imidazo[4,5-c]quinolin-4-amine]	244 to 246
CCCCc1nc2c(N)nc3cc(-c4cccnc4)ccc3c2n1CCNC(=O)C(C)C [Example 390, N-{2-[4-Amino-2-butyl-7-(pyridin-3-yl)-1H-imidazo[4,5-c]quinolin-1-yl]ethyl}-2-methylpropanamide]	228 to 230
CCCCc1nc2c(N)nc3cc(-c4cccnc4)ccc3c2n1CCNC(=O)NC(C)C [Example 392, N-{2-[4-Amino-2-butyl-7-(pyridin-3-yl)-1H-imidazo[4,5-c]quinolin-1-yl]ethyl}-N′-(1-methylethyl)urea]	240 to 241
CCCCc1nc2c(N)nc3cc(-c4cccnc4)ccc3c2n1CCN1CCCS1(=O)=O [Example 393, 1-[2-(1,1-Dioxo-1-isothiazolidin-2-yl)ethyl]-2-butyl-7-(pyridin-3-yl)-1H-imidazo[4,5-c]quinolin-4-amine]	290 to 292
CCOc1ccccc1-c1ccc2c(c1)nc(N)c1nc(COC)n(CC(C)(C)O)c12 [Example 394, 1-[4-Amino-7-(2-ethoxyphenyl)-2-methoxymethyl-1H-imidazo[4,5-c]quinolin-1-yl]-2-methylpropan-2-ol]	173 to 175
COCc1nc2c(N)nc3cc(-c4cncnc4)ccc3c2n1CC(C)(C)O [Example 395, 1-[4-Amino-2-methoxymethyl-7-(pyrimidin-5-yl)-1H-imidazo[4,5-c]quinolin-1-yl]-2-methylpropan-2-ol]	220 to 220.5

Compound	melting point [°C]
COCc1nc2c(N)nc3cc(-c4cccnc4)ccc3c2n1CC(C)(C)O [Example 396, 1-[4-Amino-2-methoxymethyl-7-(pyridin-3-yl)-1H-imidazo[4,5-c]quinolin-1-yl]-2-methylpropan-2-ol]	225 to 225.5
COCc1nc2c(N)nc3cc(-c4cnc(OC)nc4)ccc3c2n1CC(C)(C)O [Example 397, 1-[4-Amino-2-methoxymethyl-7-(2-methoxypyrimidin-5-yl)-1H-imidazo[4,5-c]quinolin-1-yl]-2-methylpropan-2-ol]	241 to 242
COCc1nc2c(N)nc3cc(-c4ccc(OC)nc4)ccc3c2n1CC(C)(C)O [Example 398, 1-[4-Amino-2-methoxymethyl-7-(6-methoxypyridin-3-yl)-1H-imidazo[4,5-c]quinolin-1-yl]-2-methylpropan-2-ol]	190 to 190.5
COCc1nc2c(N)nc3cc(-c4cnccc4OC)ccc3c2n1CC(C)(C)O [Example 399, 1-[4-Amino-2-methoxymethyl-7-(4-methoxypyridin-3-yl)-1H-imidazo[4,5-c]quinolin-1-yl]-2-methylpropan-2-ol]	220.5 to 222
COCc1nc2c(N)nc3cc(-c4cncc(OC)c4)ccc3c2n1CC(C)(C)O [Example 400, 1-[4-Amino-2-methoxymethyl-7-(5-methoxypyridin-3-yl)-1H-imidazo[4,5-c]quinolin-1-yl]-2-methylpropan-2-ol]	234 to 236
CCc1nc2c(N)nc3cc(-c4cccnc4)ccc3c2n1CC1CCN(C(=O)OC(C)(C)C)CC1 [Example 404, tert-Butyl 4-{[4-amino-2-ethyl-7-(pyridin-3-yl)-1H-imidazo[4,5-c]quinolin-1-yl]methyl}piperidine-1-carboxylate]	229 to 231
CCCc1nc2c(N)nc3cc(-c4cccnc4)ccc3c2n1CC1CCN(C(=O)OC(C)(C)C)CC1 [Example 409, tert-Butyl 4-{[4-amino-2-propyl-7-(pyridin-3-yl)-1H-imidazo[4,5-c]quinolin-1-yl]methyl}piperidine-1-carboxylate]	209 to 211
CCCc1nc2c(N)nc3cc(-c4cccnc4)ccc3c2n1CC1CCN(C(=O)C(C)C)CC1 [Example 412, 1-{4-[4-Amino-2-propyl-7-(pyridin-3-yl)-1H-imidazo[4,5-c]quinolin-1-ylmethyl]piperidin-1-yl}-2-methylpropan-1-one]	248 to 249
CCOCc1nc2c(N)nc3cc(-c4cccnc4)ccc3c2n1CCN1CCNCC1 [Example 414, 2-Ethoxymethyl-1-(2-piperazin-1-ylethyl)-7-(pyridin-3-yl)-1H-imidazo[4,5-c]quinolin-4-amine]	208 to 211
CCCc1nc2c(N)nc3cc(-c4cccnc4)ccc3c2n1CC(C)(C)O [Example 418, 1-[4-Amino-2-propyl-7-(pyridin-3-yl)-1H-imidazo[4,5-c]quinolin-1-yl]-2-methylpropan-2-ol]	238.5 to 241
CCCc1nc2c(N)nc3cc(-c4cncc(CO)c4)ccc3c2n1CC(C)(C)O [Example 420, 1-[4-Amino-7-(5-hydroxymethylpyridin-3-yl)-2-propyl-1H-imidazo[4,5-c]quinolin-1-yl]-2-methylpropan-2-ol]	225 to 226
CC(C)Cn1cnc2c(N)nc3ccc(CCc4ccncc4)cc3c21 [Example 425, 1-(2-Methylpropyl)-8-(2-pyridin-4-ylethyl)-1H-imidazo[4,5-c]quinolin-4-amine]	221 to 224
CC(C)Cn1cnc2c(N)nc3ccc(CCCCc4ccccc4)cc3c21 [Example 426, 1-(2-Methylpropyl)-8-(4-phenylbutyl)-1H-imidazo[4,5-c]quinolin-4-amine]	176 to 177
CC(C)Cn1cnc2c(N)nc3cc(C=Cc4ccccc4)ccc3c21 [Example 427, 1-(2-Methylpropyl)-7-styryl-1H-imidazo[4,5-c]quinolin-4-amine]	257 to 258
CC(C)Cn1cnc2c(N)nc3cc(-c4cccnc4)ccc3c21 [Example 428, 1-(2-Methylpropyl)-7-(pyridin-3-yl)-1H-imidazo[4,5-c]quinolin-4-amine]	125
CC(C)Cn1cnc2c(N)nc3cc(-c4cncc(CO)c4)ccc3c21 [Example 429, 1-(2-Methylpropyl)-7-(5-hydroxymethylpyridin-3-yl)-1H-imidazo[4,5-c]quinolin-4-amine]	210 to 211
CC(C)Cn1cnc2c(N)nc3cc(CCc4ccccc4)ccc3c21 [Example 430, 1-(2-Methylpropyl)-7-phenethyl-1H-imidazo[4,5-c]quinolin-4-amine]	172 to 173
CC(C)(O)Cn1cnc2c(N)nc3cc(Cc4ccccc4)ccc3c21 [Example 431, 1-(4-Amino-7-benzyl-1H-imidazo[4,5-c]quinolin-1-yl)-2-methylpropan-2-ol]	228 to 229

— US7598382B2, “Aryl substituted imidazoquinolines” (Coley Pharmaceutical Group, Inc., priority 2002, dated 2009)
